Measured values: ChEMBL document CHEMBL1141774, “Benzopyran, biphenyl, and tetraoxygenated xanthone derivatives from the twigs of Garcinia nigrolineata” (2005)
In brackets after ≈: the same amount, converted by molar mass.

Tested on: Staphylococcus aureus
Assay: Antibacterial activity against methicillin-resistant Staphylococcus aureus
Assay type: functional

**Q.** With `CC(C)=CCc1c(O)cc2oc3c(O)c4c(cc3c(=O)c2c1O)C=CC(C)(C)O4` [LASTIXANTHONE D] as the molecule, how does the MIC read?
**A.** The MIC was 2 µg/mL (≈ 5.07 µM).

**Q.** `CC1(C)C=Cc2c(cc(O)c3c(=O)c4cc(O)ccc4oc23)O1` [NIGROLINEAXANTHONE F] was tested. Which MIC did it give?
**A.** The MIC was 2 µg/mL (≈ 6.45 µM).

**Q.** Which MIC does the source give for `CC(C)=CCc1c(O)cc2oc3c(O)ccc(CCC(C)(C)O)c3c(=O)c2c1O` [NIGROLINEAXANTHONE N] here?
**A.** Its MIC is 4 µg/mL (≈ 10 µM).
